Data from US4294849A, “Prostaglandin analogues” (Warner-Lambert Company, priority 1979, dated 1981).

Columns and labels:
dogs = test: hypotensive activity, intravenous administration to allobarbital-anaesthetised dogs; assay type: in vivo, dog; details: for Hypotensive Activity Dog (i.v.), relative to PGE1 taken as 1: relative to PGE1 = 1; for useful activities (hypotensive, blood platelet aggregation inhibitory, vasodilator): in words, summary of the Table; for hypotensive activity, times as potent as PGE1: intravenous, allobarbital-anaesthetised dogs, vs PGE1
[1] = tested on: spontaneously hypertensive rats; test: hypotensive activity, oral administration to conscious spontaneously hypertensive rats; assay type: in vivo, rat; details: for Hypotensive Activity Rat (p.o.), relative to PGE1 taken as 1: relative to PGE1 = 1; for hypotensive activity, times as potent as PGE1: oral, conscious spontaneously hypertensive rats, vs PGE1
Description: In the Table, all the activities are indicated relative to the activity of PGE1, taken as 1.

mice = details: mouse, in vivo; for Diarrhoea-inducing Activity Mice (p.o.), relative to PGE1 taken as 1 / diarrhoea-inducing activity compared with PGE1: po
isolated rabbit hearts = test: coronary vasodilator activity on isolated rabbit hearts; details: for Vasodilator Activity Rabbit, relative to PGE1 taken as 1: relative to PGE1 = 1; for coronary vasodilator activity, times as potent as PGE1: isolated rabbit hearts, vs PGE1
[2] = tested on: blood platelet aggregation; test: inhibitory activity on adenosine diphosphate-induced blood platelet aggregation in platelet-rich plasma of rats; assay type: cell-based, rat; details: for Inhibitory Activity on Blood Platelet Aggregation Rat, relative to PGE1 taken as 1: relative to PGE1 = 1; for inhibitory activity on adenosine diphosphate-induced blood platelet aggregation, times as potent as PGE1: rat platelet-rich plasma, vs PGE1
[3] = tested on: blood platelet aggregation; test: inhibitory activity on adenosine diphosphate-induced blood platelet aggregation in platelet-rich plasma of humans; assay type: cell-based, human; details: for Inhibitory Activity on Blood Platelet Aggregation Human, relative to PGE1 taken as 1: relative to PGE1 = 1; for inhibitory activity on adenosine diphosphate-induced blood platelet aggregation, times as potent as PGE1: human platelet-rich plasma, vs PGE1
[4] = acute toxicity tests, intravenous or oral administration to mice; details: mouse, in vivo
Description: Acute toxicity tests on the compounds of the present invention were conducted by administering them intravenously or orally to mice.

SMILES | Hypotensive Activity Dog (i.v.), relative to PGE1 taken as 1 (dogs) | useful activities (hypotensive, blood platelet aggregation inhibitory, vasodilator) (dogs) | hypotensive activity, times as potent as PGE1 (dogs) | Hypotensive Activity Rat (p.o.), relative to PGE1 taken as 1 [1] | hypotensive activity, times as potent as PGE1 [1] | diarrhoea-inducing (side-effect) activity compared with the known compounds (mice) | Diarrhoea-inducing Activity Mice (p.o.), relative to PGE1 taken as 1 (mice) | diarrhoea-inducing activity compared with PGE1 (mice) | Vasodilator Activity Rabbit, relative to PGE1 taken as 1 (isolated rabbit hearts) | Inhibitory Activity on Blood Platelet Aggregation Rat, relative to PGE1 taken as 1 [2] | Inhibitory Activity on Blood Platelet Aggregation Human, relative to PGE1 taken as 1 [3] | coronary vasodilator activity, times as potent as PGE1 (isolated rabbit hearts) | inhibitory activity on adenosine diphosphate-induced blood platelet aggregation, times as potent as PGE1 [2] | inhibitory activity on adenosine diphosphate-induced blood platelet aggregation, times as potent as PGE1 [3] | LD50 ([4]; intravenous administration) | LD50 ([4]; oral administration)
CCCC[C@H](C)C[C@H](O)/C=C/[C@H]1[C@H](O)CC(=O)[C@@H]1CCCC/C=C/C(=O)OC [H, methyl 9-oxo-11α,15α-dihydroxy-17S,20-dimethylprosta-trans-2,trans-13-dienoate] | 5.0 | extremely strong | 5 times | 100 | 100 times | weaker | < 1 | lower diarrhoea-inducing activity than PGE1 | – | – | – | – | – | – | – | –
CCCCCC(CC)C[C@H](O)/C=C/[C@H]1[C@H](O)CC(=O)[C@@H]1CCCC/C=C/C(=O)OC (stereo partly drawn) [E, methyl 9-oxo-11α,15α-dihydroxy-17,20-diethylprosta-trans-2,trans-13-dienoate, reference compound] | 0.88 | – | – | 10 | – | – | 1.7 | – | 0.1 | 2.2 | 0.14 | – | – | – | – | –
CC(c1ccccc1)[C@H](O)/C=C/[C@H]1[C@H](O)CC(=O)[C@@H]1CCCC/C=C/C(=O)O (stereo partly drawn) [C, 9-oxo-11α,15α-dihydroxy-16-phenyl-18,19,20-trinorprosta-trans-2,trans-13-dienoic acid, reference compound] | 39.0 | – | – | – | – | – | 11.9 | – | 0.3 | – | – | – | – | – | – | –
CCCC[C@H](C)C[C@H](O)/C=C/[C@H]1[C@H](O)CC(=O)[C@@H]1CCCC/C=C/C(=O)O [F, 9-oxo-11α,15α-dihydroxy-17S,20-dimethylprosta-trans-2,trans-13-dienoic acid] | 10.0 | extremely strong | 10 times | 100 | 100 times | weaker | < 1 | lower diarrhoea-inducing activity than PGE1 | 19.0 | 81.6 | 38.5 | 19.0 times | 81.6 times | 38.5 times | ~12 mg/kg | ~50 mg/kg
CCCC[C@@H](C)[C@H](O)/C=C/[C@H]1[C@H](O)CC(=O)[C@@H]1CCCC/C=C/C(=O)O [A, 9-oxo-11α,15α-dihydroxy-16R-methylprosta-trans-2,trans-13-dienoic acid, reference compound] | 9.5 | – | – | – | – | – | 270.6 | – | 2-3 | 2.84 | 1.6 | – | – | – | – | –
CCCC(CC)C[C@H](O)/C=C/[C@H]1[C@H](O)CC(=O)[C@@H]1CCCC/C=C/C(=O)O (stereo partly drawn) [B, 9-oxo-11α,15α-dihydroxy-17-ethylprosta-trans-2,trans-13-dienoic acid, reference compound] | 1.5 | – | – | 10 | – | – | < 1 | – | 1.0 | 14.5 | 22.1 | – | – | – | – | –
CCCCCC(CC)C[C@H](O)/C=C/[C@H]1[C@H](O)CC(=O)[C@@H]1CCCC/C=C/C(=O)O (stereo partly drawn) [D, 9-oxo-11α,15α-dihydroxy-17,20-diethylprosta-trans-2,trans-13-dienoic acid, reference compound] | 1.45 | – | – | 30-100 | – | – | 3.2 | – | < 0.1 | 1.4 | 2.4 | – | – | – | – | –
CCCC[C@@H](C)C[C@H](O)/C=C/[C@H]1[C@H](O)CC(=O)[C@@H]1CCCC/C=C/C(=O)O [G, 9-oxo-11α,15α-dihydroxy-17R,20-dimethylprosta-trans-2,trans-13-dienoic acid] | 3.5 | extremely strong | 3.5 times | – | – | weaker | < 1 | lower diarrhoea-inducing activity than PGE1 | 14.0 | 70.5 | 48.1 | 14.0 times | 70.5 times | 48.1 times | – | –
